Patent US5451506A, “Oncostatin M and novel compositions having anti-neoplastic activity” (Oncogen Limited Partnership, priority 1993, dated 1995)

How the values were obtained:
[1] = tested on: A375 melanoma cells; assay: Cell growth modulatory assay using 3H-thymidine incorporation into DNA (GIA); assay type: cell-based, human; parameters: Observed % Inhibition of 3H-TdR Incorporation: concentration or dose not given beside the values
Protocol: (§1) The assays were performed in 96 flat well plates (Costar 3596). Human melanoma cells (A375) (3×10^3 /100 μl) or cells from another cell line of interest were at an appropriate cell density used. Cells in 100 μl growth medium were placed in each well. Three hours later, 100 μl of test sample in growth medium was added to each well. Plates were incubated at 37° C. for 3 days. Then 25 μl (0.5 μCi) of a solution of ^3 H-thymidine (specific activity 27 μCi/μg) was added to each well for the final 6 hours of incubation. The cells were then transferred to glass filter strips using a multiwell harvester (PHD Cell Harvester, Cambridge Technology, Inc.). The filters were transferred to scintillation vials. Two ml of scintillation fluid (ScientiVerse II, Fisher Scientific Co.) was added and the samples counted in a scintillation counter to quantitate ^3 H-thymidine incorporation.

[2] = tested on: A549 lung cancer cells; assay: as above; assay type: cell-based, human
Protocol: as §1
(§2) The effect of Oncostatin M on various cell lines was assessed using a cell growth modulatory assay performed as described in Example 1B, above. The cell lines tested included A549 lung cancer cells. HTB10 neuroblastoma cells, and A375 melanoma cells.

[3] = tested on: HTB10 neuroblastoma cells; assay: as above; assay type: cell-based, human
Protocol: as §1, §2

[4] = tested on: SK-MEL28 melanoma cells; assay: as above; assay type: cell-based, human
Protocol: as §1
(§3) Human tumor cells (A375 melanoma cells, A549 lung cancer cells, HBT10 neuroblastoma cells, and SK-MEL28 melanoma cells) were seeded at 3×10^3 cells/well and normal fibroblasts (WI26 cells and WI38 cells) at 1.5×10^3 cells/well in 96-well plates. Various concentrations of purified Oncostatin M, obtained from the fraction from the C18^3 column with peak antiproliferative activity against A375 cells were used. The assay was performed as described in Example 1B above.

[5] = tested on: WI26 fibroblasts; assay: as above; assay type: cell-based, human
Protocol: as §1, §3

[6] = tested on: WI38 fibroblasts; assay: as above; assay type: cell-based, human
Protocol: as §1, §3

[7] = tested on: MCF-7 breast tumor cells; assay: Inhibition of 3H-TdR incorporation, Oncostatin M and TNF-α; assay type: cell-based, human; settings: MCF-7 Cells
Protocol: as §1
Inhibition of ^3 H-TdR incorporation into A375 cells and MCF-7 cells were compared using the assay described in Example 1B, above. The cells were treated with either Oncostatin M alone, TNF-α (Amgen Biologicals, human recombinant TNF-α) alone, or with a combination of Oncostatin M and TNF-α.

[8] = tested on: A375 cells; assay: Growth inhibition assay (A375 proliferation; synergy tests); assay type: cell-based, human; settings: 1.8 U/ml, alone
Protocol: A375 melanoma cells (4×10^3 cells/50 μl), Mv1Lu mink lung epithelial cells (3.5×10^3 cells/50 μl), or other cell line of interest at an appropriate cell density were subcultured for four hours on flat-bottomed 96-well tissue culture plates (Costar 3596, Cambridge, Mass.) in growth medium comprising Dulbecco's modified Eagle's medium (DMEM), supplemented with 10% heat-in-activated fetal bovine serum, and P/S. Test samples to be assayed for growth inhibition were diluted in growth medium and assayed in triplicate with 50 μl of the diluted sample added to each well. The cells were incubated for 72 hours at 37° C.
The growth inhibitory activity of highly purified TGF-β1, recombinant gamma-interferon (rIFN-γ), and Oncostatin M on A375 cells was determined, and possible synergy between TGF-β1 and Oncostatin M, TGF-β1 and rIFN-γ, and Oncostatin M and rIFN-γ in inhibiting A375 proliferation was tested. […] is expressed in units of Mv1Lu growth inhibitory activity, rIFN-γ in units of anti-viral activity and Oncostatin M in units of A375 growth inhibitory activity. Concentrations of TGF-β1 (1-30 U/ml) and Oncostatin M (0.5-10 U/ml) were chosen which caused either no or only minimal growth inhibition when tested individually.

[9] = tested on: Mouse L929 cells; assay: Effect on mouse L929 cells; assay type: cell-based; settings: mouse L929 cells, sensitive to tumor necrosis factor
Protocol: The ability of PBL-derived Oncostatin M to affect replication of a variety of cells was also investigated. Mouse L929 cells were insenstive to PBL-derived Oncostatin M using up to 1000 GIA units/ml. Growth of human fibroblasts, WI26, was stimulated by treatment with 1000 GIA units/ml. Normal human T-lymphocyte proliferation at 72 hours post mitogenesis was not affected by up to 500 GIA units/ml.

[10] = tested on: A375 cells; assay: Effect of acid, base and heat treatments on tumor growth inhibitory activity; assay type: cell-based, human
Protocol: as §1
U937 cells (RPMI 1640+5% FCS seeded at 7.5×10^5 cells/ml) were treated with TPA (10 ng/ml) for 3 days. The cells were then washed with medium (serum-free RPMI 1640) and incubated for 24 hr in serum-free (serum-free RPMI 1640) medium before collecting the supernatants. The supernatants were treated with 1N acetic acid or 1N ammonium hydroxide. They were then dialyzed against medium (serum-free RPMI 1640) and tested for their ability to inhibit ^3 H-thymidine incorporation into A375 cells using the assay as described in Example 1B

[11] = tested on: human proliferative or cytotoxic T cell responses; assay: Mixed leukocyte culture reactions (MLC); assay type: cell-based; settings: 500 GIA units/ml
[12] = tested on: γ-interferon-sensitive human tumor cell line; assay: Cytotoxic activity against a γ-interferon-sensitive tumor line; assay type: cell-based

Oncostatin M: Human polypeptide growth regulator produced by activated leukocytes; apparent molecular weight approximately 28 kD by PAGE
GIA Units to Cause 30% Inhibition 3H-TDR Incorporation ([1]; A375 (melanoma)): 0.3 GIA Units
concentration to cause 30% inhibition 3H-TdR ([1]; A375, based upon the specific activity of purified Oncostatin M): ~0.015 ng/mL
Observed % Inhibition of 3H-TdR Incorporation ([1]; A375 Cells): 17%
% Inhibition of 3H-thymidine incorporated ([1]; Exp. 1, A375, 1 GIA units/well): 46%
% Inhibition of 3H-thymidine incorporated ([1]; Exp. 1, A375, 4 GIA units/well): 62%
% Inhibition of 3H-thymidine incorporated ([1]; Exp. 1, A375, 16 GIA units/well): 83%
% Inhibition of 3H-thymidine incorporated ([1]; Exp. 2, A375, 3 GIA units/well): 76%
% Inhibition of 3H-thymidine incorporated ([1]; Exp. 2, A375, 9 GIA units/well): 87%
% Inhibition of 3H-thymidine incorporated ([1]; Exp. 3, A375, 8 GIA units/well): 71%
% Inhibition of 3H-thymidine incorporated ([1]; Exp. 3, A375, 25 GIA units/well): 85%
% Inhibition of 3H-thymidine incorporated ([1]; Exp. 3, A375, 75 GIA units/well): 89%
% Inhibition of 3H-thymidine incorporated ([1]; Exp. 4, A375, 1 GIA units/well): 59%
% Inhibition of 3H-thymidine incorporated ([1]; Exp. 4, A375, 5 GIA units/well): 75%
% Inhibition of 3H-thymidine incorporated ([1]; Exp. 4, A375, 20 GIA units/well): 87%
Growth inhibitory activity contained in the fraction ([1]; apparently homogeneous C18^3 fraction, approximately 300 ng protein): about 40,000 GIA units
Proliferation of A375 cells ([1]; protein electroeluted from the 28 kD band, non-reducing PAGE): inhibit proliferation of A375 cells
GIA Units to Cause 30% Inhibition 3H-TDR Incorporation ([2]; A549 (lung cancer)): 21.0 GIA Units
concentration to cause 30% inhibition 3H-TdR ([2]; A549, based upon the specific activity of purified Oncostatin M): approximately 1.4 ng/ml
% Inhibition of 3H-thymidine incorporated ([2]; Exp. 3, A549, 8 GIA units/well): 16%
% Inhibition of 3H-thymidine incorporated ([2]; Exp. 3, A549, 25 GIA units/well): 22%
% Inhibition of 3H-thymidine incorporated ([2]; Exp. 3, A549, 75 GIA units/well): 30%
% Inhibition of 3H-thymidine incorporated ([3]; Exp. 2, HTB10, 3 GIA units/well): 11%
% Inhibition of 3H-thymidine incorporated ([3]; Exp. 2, HTB10, 9 GIA units/well): 22%
% Inhibition of 3H-thymidine incorporated ([3]; Exp. 2, HTB10, 27 GIA units/well): 28%
GIA Units to Cause 30% Inhibition 3H-TDR Incorporation ([3]; HTB10 (neuroblastoma)): 81.0 GIA Units
concentration to cause 30% inhibition 3H-TdR ([3]; HTB10, based upon the specific activity of purified Oncostatin M): ~4.0 ng/mL
% Inhibition of 3H-thymidine incorporated ([4]; Exp. 4, SK-MEL28, 1 GIA units/well): 11%
% Inhibition of 3H-thymidine incorporated ([4]; Exp. 4, SK-MEL28, 5 GIA units/well): 25%
% Inhibition of 3H-thymidine incorporated ([4]; Exp. 4, SK-MEL28, 20 GIA units/well): 44%
% Stimulation of 3H-thymidine incorporated ([5]; Exp. 2, WI26, 3 GIA units/well): 52%
% Stimulation of 3H-thymidine incorporated ([5]; Exp. 2, WI26, 9 GIA units/well): 36%
% Stimulation of 3H-thymidine incorporated ([5]; Exp. 2, WI26, 27 GIA units/well): 46%
Cytotoxic activity ([5]; WI26 human fibroblasts): lacks cytotoxic activity
% Stimulation of 3H-thymidine incorporated ([6]; Exp. 1, WI38, 1 GIA units/well): 46%
% Stimulation of 3H-thymidine incorporated ([6]; Exp. 1, WI38, 4 GIA units/well): 30%
% Stimulation of 3H-thymidine incorporated ([6]; Exp. 1, WI38, 16 GIA units/well): 25%
Cytotoxic activity ([6]; WI38 human fibroblasts): lacks cytotoxic activity
Observed % Inhibition of 3H-TdR Incorporation [7]: 18%
Inhibition of cell growth [8]: 12%
Cytotoxic activity [9]: lacks cytotoxic activity
Resistance to inactivation by acid and base ([10]; 1N acetic acid and 1N ammonium hydroxide, dialyzed supernatant): substantially resistant to inactivation
Heat stability of activity ([10]; 56° C. for 1 hr): retain its activity
Heat stability of activity ([10]; 95° C. for 30 min): lose substantially all its activity
Proliferative or cytotoxic T cell responses in MLC [11]: does not suppress
Cytotoxic activity [12]: lacks cytotoxic activity
